Species: Rattus norvegicus
Assay: Open TG-GATES - Regimen: Single
Type: toxicity, organism-based, Sprague-Dawley
Set-up: regimen Single, gender Male, age 6 weeks
Conditions: in vivo, po, route gavage; for APTT / Bas / Eos / Fbg / Hb / Ht / Lym / MCH / MCHC / MCV / Mono / Neu / PT / Plat / RBC / Ret / WBC: tissue Blood; for KIDNEY_L / KIDNEY_R / KIDNEY_TOTAL: tissue Kidney; for LIVER: tissue Liver; for A/G / ALP / ALT / AST / BUN / CRE / Ca / Cl / DBIL / GLC / IP / K / LDH / Na / PL / RALB / TBIL / TC / TG / TP / gamma-GTP: tissue Plasma
[1] = 100 mg/kg, 3 h, dose level Middle
[2] = 100 mg/kg, 6 h, dose level Middle
[3] = 100 mg/kg, 9 h, dose level Middle
[4] = 100 mg/kg, 24 h, dose level Middle
[5] = 300 mg/kg, 3 h, dose level High
[6] = 300 mg/kg, 6 h, dose level High
[7] = 300 mg/kg, 9 h, dose level High
[8] = 300 mg/kg, 24 h, dose level High

## CCc1oc2ccccc2c1C(=O)c1cc(I)c(O)c(I)c1 [BENZIODARONE]
[1]
  TERMINAL_BW: 215.5 g
  APTT: 16.9 s
  Bas: 0%
  Eos: 0.6%
  Fbg: 189.8 mg/dL
  Hb: 13.1 g/dL
  Ht: 39.1%
  Lym: 75.8%
  MCH: 21.8 pg
  MCHC: 33.6%
  MCV: 64.9 fL
  Mono: 8.8%
  Neu: 15%
  PT: 11.9 s
  Plat: 118.7 x10_4/uL
  RBC: 603 x10_4/ul
  Ret: 9.2%
  WBC: 94.2 x10_2/uL
  KIDNEY_L: 1 g
  KIDNEY_R: 1 g
  KIDNEY_TOTAL: 2 g
  LIVER: 10.2 g
  A/G: 2.1
  ALP: 966.8 IU/L
  ALT: 36.6 IU/L
  AST: 69 IU/L
  BUN: 12.6 mg/dL
  CRE: 0.5 mg/dL
  Ca: 10.5 mg/dL
  Cl: 102.4 meq/L
  DBIL: 0.02 mg/dL
  GLC: 201.2 mg/dL
  IP: 9.3 mg/dL
  K: 4.4 meq/L
  LDH: 110 IU/L
  Na: 140.4 meq/L
  PL: 128.6 mg/dL
  RALB: 3.5 g/dL
  TBIL: 0.5 mg/dL
  TC: 73.8 mg/dL
  TG: 52.4 mg/dL
  TP: 5.2 g/dL
  gamma-GTP: 1.8 IU/L
[2]
  TERMINAL_BW: 210.6 g
  APTT: 16.8 s
  Bas: 0%
  Eos: 1%
  Fbg: 217.8 mg/dL
  Hb: 13.6 g/dL
  Ht: 40.7%
  Lym: 73.2%
  MCH: 21.7 pg
  MCHC: 33.3%
  MCV: 65.1 fL
  Mono: 9.2%
  Neu: 16.4%
  PT: 11.8 s
  Plat: 109.1 x10_4/uL
  RBC: 625.8 x10_4/ul
  Ret: 10.1%
  WBC: 113.1 x10_2/uL
  KIDNEY_L: 0.9 g
  KIDNEY_R: 0.9 g
  KIDNEY_TOTAL: 1.9 g
  LIVER: 9.7 g
  A/G: 2
  ALP: 826.8 IU/L
  ALT: 32.6 IU/L
  AST: 61.2 IU/L
  BUN: 12.4 mg/dL
  CRE: 0.5 mg/dL
  Ca: 10.7 mg/dL
  Cl: 103.2 meq/L
  DBIL: 0.02 mg/dL
  GLC: 182.4 mg/dL
  IP: 9.9 mg/dL
  K: 4.6 meq/L
  LDH: 108.4 IU/L
  Na: 140.4 meq/L
  PL: 133 mg/dL
  RALB: 3.6 g/dL
  TBIL: 0.3 mg/dL
  TC: 74.4 mg/dL
  TG: 77.8 mg/dL
  TP: 5.4 g/dL
  gamma-GTP: 1.6 IU/L
[3]
  TERMINAL_BW: 209.5 g
  APTT: 16.8 s
  Bas: 0%
  Eos: 1%
  Fbg: 202.2 mg/dL
  Hb: 13.6 g/dL
  Ht: 40.8%
  Lym: 76.4%
  MCH: 21.3 pg
  MCHC: 33.3%
  MCV: 63.9 fL
  Mono: 7.4%
  Neu: 15.4%
  PT: 12.4 s
  Plat: 121.3 x10_4/uL
  RBC: 638.4 x10_4/ul
  Ret: 8.2%
  WBC: 86.5 x10_2/uL
  KIDNEY_L: 1 g
  KIDNEY_R: 0.9 g
  KIDNEY_TOTAL: 1.9 g
  LIVER: 8.9 g
  A/G: 2.3
  ALP: 766.6 IU/L
  ALT: 29.8 IU/L
  AST: 63.4 IU/L
  BUN: 13 mg/dL
  CRE: 0.5 mg/dL
  Ca: 10.3 mg/dL
  Cl: 105.2 meq/L
  DBIL: 0.07 mg/dL
  GLC: 194.8 mg/dL
  IP: 10.9 mg/dL
  K: 4.5 meq/L
  LDH: 108.8 IU/L
  Na: 142.4 meq/L
  PL: 122.8 mg/dL
  RALB: 3.7 g/dL
  TBIL: 0.3 mg/dL
  TC: 68.2 mg/dL
  TG: 56.6 mg/dL
  TP: 5.4 g/dL
  gamma-GTP: 0.6 IU/L
[4]
  TERMINAL_BW: 228.7 g
  APTT: 17.4 s
  Bas: 0%
  Eos: 1.2%
  Fbg: 196.8 mg/dL
  Hb: 13.2 g/dL
  Ht: 39.3%
  Lym: 73.8%
  MCH: 22 pg
  MCHC: 33.7%
  MCV: 65.4 fL
  Mono: 9.6%
  Neu: 15.6%
  PT: 12.1 s
  Plat: 113.1 x10_4/uL
  RBC: 601.2 x10_4/ul
  Ret: 9%
  WBC: 106.2 x10_2/uL
  KIDNEY_L: 1 g
  KIDNEY_R: 1 g
  KIDNEY_TOTAL: 2 g
  LIVER: 11.9 g
  A/G: 2.1
  ALP: 1017.4 IU/L
  ALT: 36.8 IU/L
  AST: 66 IU/L
  BUN: 17.8 mg/dL
  CRE: 0.5 mg/dL
  Ca: 10.6 mg/dL
  Cl: 104.8 meq/L
  DBIL: 0.006 mg/dL
  GLC: 196 mg/dL
  IP: 7.6 mg/dL
  K: 4.6 meq/L
  LDH: 87.6 IU/L
  Na: 140.8 meq/L
  PL: 129 mg/dL
  RALB: 3.7 g/dL
  TBIL: 0.4 mg/dL
  TC: 65.8 mg/dL
  TG: 84 mg/dL
  TP: 5.5 g/dL
  gamma-GTP: 1 IU/L
[5]
  TERMINAL_BW: 211.6 g
  APTT: 17 s
  Bas: 0%
  Eos: 0.2%
  Fbg: 206 mg/dL
  Hb: 13 g/dL
  Ht: 39%
  Lym: 75.8%
  MCH: 21.6 pg
  MCHC: 33.3%
  MCV: 65 fL
  Mono: 7.4%
  Neu: 16.4%
  PT: 11.9 s
  Plat: 107 x10_4/uL
  RBC: 600.4 x10_4/ul
  Ret: 11.4%
  WBC: 93.8 x10_2/uL
  KIDNEY_L: 0.9 g
  KIDNEY_R: 1 g
  KIDNEY_TOTAL: 1.9 g
  LIVER: 10 g
  A/G: 2
  ALP: 893 IU/L
  ALT: 37.8 IU/L
  AST: 64.6 IU/L
  BUN: 16.4 mg/dL
  CRE: 0.6 mg/dL
  Ca: 10.5 mg/dL
  Cl: 102 meq/L
  DBIL: 0.056 mg/dL
  GLC: 230.8 mg/dL
  IP: 9.7 mg/dL
  K: 4.7 meq/L
  LDH: 102.8 IU/L
  Na: 139 meq/L
  PL: 133.6 mg/dL
  RALB: 3.5 g/dL
  TBIL: 0.5 mg/dL
  TC: 71.4 mg/dL
  TG: 71.4 mg/dL
  TP: 5.3 g/dL
  gamma-GTP: 1.2 IU/L
[6]
  TERMINAL_BW: 214.2 g
  APTT: 18.2 s
  Bas: 0%
  Eos: 1%
  Fbg: 205.8 mg/dL
  Hb: 13 g/dL
  Ht: 38.8%
  Lym: 79%
  MCH: 21.9 pg
  MCHC: 33.6%
  MCV: 65.4 fL
  Mono: 3.6%
  Neu: 16.8%
  PT: 12.2 s
  Plat: 113.1 x10_4/uL
  RBC: 593.6 x10_4/ul
  Ret: 11.2%
  WBC: 70.8 x10_2/uL
  KIDNEY_L: 0.9 g
  KIDNEY_R: 1 g
  KIDNEY_TOTAL: 1.9 g
  LIVER: 9.4 g
  A/G: 2.1
  ALP: 980.4 IU/L
  ALT: 39.6 IU/L
  AST: 64.4 IU/L
  BUN: 14.6 mg/dL
  CRE: 0.6 mg/dL
  Ca: 10.4 mg/dL
  Cl: 102.8 meq/L
  DBIL: 0.052 mg/dL
  GLC: 235.6 mg/dL
  IP: 10.3 mg/dL
  K: 4.5 meq/L
  LDH: 89 IU/L
  Na: 140.2 meq/L
  PL: 129.4 mg/dL
  RALB: 3.6 g/dL
  TBIL: 0.4 mg/dL
  TC: 73.8 mg/dL
  TG: 36 mg/dL
  TP: 5.2 g/dL
  gamma-GTP: 1.4 IU/L
[7]
  TERMINAL_BW: 215.8 g
  APTT: 18.7 s
  Bas: 0%
  Eos: 0.6%
  Fbg: 208.2 mg/dL
  Hb: 13.5 g/dL
  Ht: 40.2%
  Lym: 80%
  MCH: 22.1 pg
  MCHC: 33.6%
  MCV: 65.7 fL
  Mono: 6.8%
  Neu: 12.8%
  PT: 12.2 s
  Plat: 114.6 x10_4/uL
  RBC: 612 x10_4/ul
  Ret: 9.3%
  WBC: 88.9 x10_2/uL
  KIDNEY_L: 1 g
  KIDNEY_R: 1 g
  KIDNEY_TOTAL: 2 g
  LIVER: 9 g
  A/G: 2.1
  ALP: 976.4 IU/L
  ALT: 38.2 IU/L
  AST: 63 IU/L
  BUN: 17 mg/dL
  CRE: 0.6 mg/dL
  Ca: 10.5 mg/dL
  Cl: 103.8 meq/L
  DBIL: 0.098 mg/dL
  GLC: 214 mg/dL
  IP: 10.8 mg/dL
  K: 4.7 meq/L
  LDH: 107.6 IU/L
  Na: 141.8 meq/L
  PL: 139.2 mg/dL
  RALB: 3.7 g/dL
  TBIL: 0.2 mg/dL
  TC: 75.4 mg/dL
  TG: 77 mg/dL
  TP: 5.4 g/dL
  gamma-GTP: 1.4 IU/L
[8]
  TERMINAL_BW: 220.7 g
  APTT: 16.9 s
  Bas: 0%
  Eos: 0.6%
  Fbg: 200.8 mg/dL
  Hb: 13.4 g/dL
  Ht: 39.8%
  Lym: 81%
  MCH: 21.7 pg
  MCHC: 33.8%
  MCV: 64.4 fL
  Mono: 6%
  Neu: 12.6%
  PT: 12.1 s
  Plat: 120.3 x10_4/uL
  RBC: 618.2 x10_4/ul
  Ret: 9.6%
  WBC: 106.3 x10_2/uL
  KIDNEY_L: 1 g
  KIDNEY_R: 1 g
  KIDNEY_TOTAL: 2 g
  LIVER: 11.9 g
  A/G: 2.2
  ALP: 1044.4 IU/L
  ALT: 36.2 IU/L
  AST: 67.2 IU/L
  BUN: 17.8 mg/dL
  CRE: 0.6 mg/dL
  Ca: 10.7 mg/dL
  Cl: 104 meq/L
  DBIL: 0.008 mg/dL
  GLC: 184.8 mg/dL
  IP: 8.3 mg/dL
  K: 4.6 meq/L
  LDH: 89.2 IU/L
  Na: 141.2 meq/L
  PL: 120.2 mg/dL
  RALB: 3.9 g/dL
  TBIL: 0.3 mg/dL
  TC: 66.6 mg/dL
  TG: 72 mg/dL
  TP: 5.7 g/dL
  gamma-GTP: 1.4 IU/L
